Reference: PubChem BioAssay (NCI)
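Assay format: 96-well plates, 48-hour exposure. At the TGI there is no net growth.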

Tests used:
Assay in all cases: NCI tumour cell line growth inhibition, 48 h
[1] = system: HCC-2998 colon
[2] = system: MDA-MB-435
[3] = system: A498 renal
[4] = system: 786-0 renal
[5] = system: HOP-92 NSCLC
[6] = system: CAKI-1 renal
[7] = system: OVCAR-3 ovarian
[8] = system: U251 CNS
[9] = system: SK-MEL-28 melanoma
[10] = system: RXF 393 renal
[11] = system: T-47D breast
[12] = system: EKVX NSCLC
[13] = system: SNB-19 CNS
[14] = system: HT29 colon
[15] = system: M14 melanoma
[16] = system: TK-10 renal
[17] = system: OVCAR-8 ovarian
[18] = system: NCI-H460 lung
[19] = system: SK-OV-3 ovarian
[20] = system: UACC-62 melanoma
[21] = system: OVCAR-4 ovarian
[22] = system: RPMI-8226 leukemia
[23] = system: SF-295 CNS
[24] = system: MCF7 breast
[25] = system: KM12 colon
[26] = system: SF-268 CNS
[27] = system: UACC-257 melanoma
[28] = system: HOP-62 NSCLC
[29] = system: NCI-H226 lung
[30] = system: SNB-75 CNS
[31] = system: HCT-15 colon
[32] = system: MALME-3M melanoma
[33] = system: UO-31 renal
[34] = system: NCI-H522 lung
[35] = system: COLO 205 colon
[36] = system: SK-MEL-5 melanoma
[37] = system: DU-145 prostate
[38] = system: LOX IMVI melanoma
[39] = system: MDA-MB-231 breast
[40] = system: IGROV1 ovarian
[41] = system: PC-3 prostate
[42] = system: HS 578T breast
[43] = system: SN12C renal
[44] = system: SW-620 colon
[45] = system: MDA-N
[46] = system: BT-549 breast
[47] = system: HCT-116 colon
[48] = system: NCI/ADR-RES ovarian
[49] = system: OVCAR-5 ovarian
[50] = system: MOLT-4 leukemia
[51] = system: K-562 leukemia
[52] = system: NCI-H23 lung
[53] = system: HL-60(TB) leukemia
[54] = system: A549 NSCLC
[55] = system: ACHN renal
[56] = system: SK-MEL-2 melanoma
[57] = system: SF-539 CNS
[58] = system: CCRF-CEM leukemia

CC(C)(C)CC(C)(C)c1cc(O)c(O)c(CN2CCCCC2)c1
TGI [1]: 22.4 µM
TGI [2]: 37.1 µM
TGI [3]: 27.3 µM
TGI [4]: 26.7 µM
TGI [5]: 35 µM
TGI [6]: 27.9 µM
TGI [7]: 28 µM
TGI [8]: 24.3 µM
TGI [9]: 32.8 µM
TGI [10]: 29.2 µM
TGI [11]: 33.9 µM
TGI [12]: 26.4 µM
TGI [13]: 28.8 µM
TGI [14]: 19.7 µM
TGI [15]: 29 µM
TGI [16]: 29.6 µM
TGI [17]: 33.1 µM
TGI [18]: 24 µM
TGI [19]: 34.8 µM
TGI [20]: 29.8 µM
TGI [21]: 42 µM
TGI [22]: 30.6 µM
TGI [23]: 32.3 µM
TGI [24]: 25.1 µM
TGI [25]: 40.4 µM
TGI [26]: 25.3 µM
TGI [27]: 26.1 µM
TGI [28]: 30.1 µM
TGI [29]: 32 µM
TGI [30]: 37.3 µM
TGI [31]: 15.9 µM
TGI [32]: 25.9 µM
TGI [33]: 26.1 µM
TGI [34]: 23.5 µM
TGI [35]: 25.3 µM
TGI [36]: 28.9 µM
TGI [37]: 30.5 µM
TGI [38]: 24.3 µM
TGI [39]: 32.6 µM
TGI [40]: 34.6 µM
TGI [41]: 26.9 µM
TGI [42]: 41.3 µM
TGI [43]: 30.3 µM
TGI [44]: 28 µM
TGI [45]: 28.3 µM
TGI [46]: 28.4 µM
TGI [47]: 29.5 µM
TGI [48]: 19 µM
TGI [49]: 31.8 µM
TGI [50]: 16.4 µM
TGI [51]: 19.3 µM
TGI [52]: 29.6 µM
TGI [53]: 31.6 µM
TGI [54]: 30.8 µM
TGI [55]: 25.6 µM

Cc1nn(-c2ccccc2)c(C)c1/C=N/N=C1\S/C(=C\c2ccc(Cl)cc2)C(=O)N1c1ccccc1
TGI [2]: > 100 µM
TGI [3]: > 100 µM
TGI [4]: 7.89 µM
TGI [5]: > 100 µM
TGI [6]: > 100 µM
TGI [7]: > 100 µM
TGI [8]: > 100 µM
TGI [9]: > 100 µM
TGI [10]: 84.3 µM
TGI [11]: > 100 µM
TGI [56]: > 100 µM
TGI [12]: > 100 µM
TGI [13]: > 100 µM
TGI [14]: > 100 µM
TGI [15]: > 100 µM
TGI [16]: > 100 µM
TGI [17]: > 100 µM
TGI [18]: > 100 µM
TGI [19]: > 100 µM
TGI [20]: > 100 µM
TGI [21]: 4.74 µM
TGI [22]: > 100 µM
TGI [23]: > 100 µM
TGI [24]: > 100 µM
TGI [25]: > 100 µM
TGI [26]: > 100 µM
TGI [27]: > 100 µM
TGI [57]: > 100 µM
TGI [58]: > 100 µM
TGI [28]: > 100 µM
TGI [29]: > 100 µM
TGI [30]: 71.8 µM
TGI [31]: > 100 µM
TGI [32]: > 100 µM
TGI [33]: > 100 µM
TGI [35]: > 100 µM
TGI [36]: > 100 µM
TGI [37]: > 100 µM
TGI [38]: > 100 µM
TGI [39]: > 100 µM
TGI [40]: > 100 µM
TGI [41]: > 100 µM
TGI [42]: 60.9 µM
TGI [43]: > 100 µM
TGI [44]: > 100 µM
TGI [45]: > 100 µM
TGI [46]: > 100 µM
TGI [47]: > 100 µM
TGI [48]: > 100 µM
TGI [49]: > 100 µM
TGI [50]: 27.2 µM
TGI [51]: > 100 µM
TGI [52]: > 100 µM
TGI [53]: 24.4 µM
TGI [54]: > 100 µM
TGI [55]: > 100 µM
